# Measured values reported in US20240252488A1 (KOREA RESEARCH INSTITUTE OF CHEMICAL TECHNOLOGY, priority 2020, published 2024).
# Assays:
# FADD−/− Jurkat cells = experiment: Necroptosis inhibition assay, TNF-α-induced necroptosis (CellTiter-Glo 2.0); assay type: cell-based, human; details: TNF-α 15 ng/mL; for Necroptosis inhibition assay (Rescue %) 1 μM: compound 1 μM; for Necroptosis inhibition assay (Rescue %) 10 μM: compound 10 μM
# Summary of the method: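 Cmpd 0.1/1/10 μM final, 30 min RT preincubation; TNF-α 15 ng/mL final; 20–24 h, 37° C, 5% CO2. Readout: ATP luminescence (reagent 1:3 in PBS), 0.5 s/well. Cytotoxicity and % necroptosis inhibition calculated from signal.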
# MLKL [1] = target: T1, MLKL (Homo sapiens, UniProt Q8NB16); experiment: MLKL degradation assay in HepG2 cell line (western blot); assay type: cell-based; set-up: endogenous in cells; host or cells: HepG2 or HaCaT; details: cell line not given; for Degradation assay (Degradation %) 1 μM: compound 1 μM; for Degradation assay (Degradation %) 10 μM: compound 10 μM
# T1 sequence (Q8NB16 1-471): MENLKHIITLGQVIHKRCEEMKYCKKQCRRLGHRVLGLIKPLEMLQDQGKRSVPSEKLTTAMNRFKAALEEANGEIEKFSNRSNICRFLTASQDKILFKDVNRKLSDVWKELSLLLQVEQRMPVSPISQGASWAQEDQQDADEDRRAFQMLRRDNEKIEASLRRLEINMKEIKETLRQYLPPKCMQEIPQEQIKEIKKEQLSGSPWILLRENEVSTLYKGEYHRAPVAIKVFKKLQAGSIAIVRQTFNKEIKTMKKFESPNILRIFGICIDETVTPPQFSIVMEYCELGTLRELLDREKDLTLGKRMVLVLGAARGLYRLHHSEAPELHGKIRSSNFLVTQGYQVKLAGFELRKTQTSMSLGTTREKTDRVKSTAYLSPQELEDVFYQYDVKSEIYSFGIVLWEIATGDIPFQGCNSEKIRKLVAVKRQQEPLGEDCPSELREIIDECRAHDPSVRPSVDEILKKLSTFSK
# Summary of the method: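 HepG2, cpd final 1 or 10 μM, 20-24 h, 37 °C/5% CO2; RIPA lysis, BCA-normalized, 10-15 μg/lane SDS-PAGE, western blot, ECL read-out.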
# MLKL [2] = target: T1, MLKL; experiment: Measurement of binding affinity with MLKL receptor (competitive binding assay, Kd); set-up: made in house; host or cells: HEK 293 cell line (T7 phage in E. coli BL21-derived host is also described)
# Summary of the method: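 MLKL was produced in HEK 293 cells and tagged with DNA for detection. Liganded beads were blocked with excess biotin and washed to cut non-specific binding, then compounds (111× DMSO stocks, 0.9% DMSO in assay) competed for binding. Eluate kinase was measured by qPCR for Kd.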
SMILES,Necroptosis inhibition assay (Rescue %) 1 μM (FADD−/− Jurkat cells) [%],Necroptosis inhibition assay (Rescue %) 10 μM (FADD−/− Jurkat cells) [%],Degradation assay (Degradation %) 1 μM (MLKL [1]) [%],Degradation assay (Degradation %) 10 μM (MLKL [1]) [%],Kd (MLKL [2]) [nM],Necroptosis inhibition assay (Rescue %) 1 μM (FADD−/− Jurkat cells; FADD−/− Jurkat cells) [%],Necroptosis inhibition assay (Rescue %) 10 μM (FADD−/− Jurkat cells; FADD−/− Jurkat cells) [%]
"Nc1ncc(-c2cnn(C3CCN(C(=O)C4CCN(c5cccc6c5C(=O)N(C5CCC(=O)NC5=O)C6=O)CC4)CC3)c2)nc1C(=O)OC(C(=O)Nc1ccc(F)cc1)c1ccccc1 (centres unmarked) [TDH-279, 2-((4-fluorophenyl)amino)-2-oxo-1-phenylethyl 3-amino-6-(1-(1-(1-(2-(2,6-dioxopiperidin-3-yl)-1,3-dioxoisoindolin-4-yl)piperidine-4-carbonyl)piperidin-4-yl)-1H-pyrazol-4-yl)pyrazine-2-carboxylate]",24.78,44.14,38.42,15.86,5,–,–
"Nc1ncc(-c2cnn(C3CCN(CC4CCN(CC5CCN(c6ccc7c(c6)C(=O)N(C6CCC(=O)NC6=O)C7=O)CC5)CC4)CC3)c2)nc1C(=O)O[C@@H](C(=O)Nc1ccc(F)cc1)c1ccccc1 (stereo partly drawn) [TDH-473, (R)-2-((4-fluorophenyl)amino)-2-oxo-1-phenylethyl 3-amino-6-(1-(1-((1-((1-(2-(2,6-dioxopiperidin-3-yl)-1,3-dioxoisoindolin-5-yl)piperidin-4-yl)methyl)piperidin-4-yl)methyl)piperidin-4-yl)-1H-pyrazol-4-yl)pyrazine-2-carboxylate]",–,–,63.51,73.71,1.7,28.37,−13.59
"Nc1ncc(-c2cnn(C3CCN(C4CC5(CCN(CC6CCN(C(=O)C7CN(C8=CC(=O)N(C9CCC(=O)NC9=O)C8=O)C7)CC6)CC5)C4)CC3)c2)nc1C(=O)O[C@@H](C(=O)Nc1ccc(F)cc1)c1ccccc1 (stereo partly drawn) [TDH-534, (R)-2-((4-fluorophenyl)amino)-2-oxo-1-phenylethyl 3-amino-6-(1-(1-(7-((1-(1-(1-(2,6-dioxopiperidin-3-yl)-2,5-dioxo-2,5-dihydro-1H-pyrrol-3-yl)azetidine-3-carbonyl)piperidin-4-yl)methyl)-7-azaspiro[3.5]nonan-2-yl)piperidin-4-yl)-1H-pyrazol-4-yl)pyrazine-2-carboxylate]",–,–,49.96,24.88,0.24,21.33,22.25
"Cc1ncsc1-c1ccc(CNC(=O)[C@@H]2C[C@@H](O)CN2C(=O)[C@@H](NC(=O)CN2CCC(CN3CCC(n4cc(-c5cnc(N)c(C(=O)O[C@@H](C(=O)Nc6ccc(F)cc6)c6ccccc6)n5)cn4)CC3)CC2)C(C)(C)C)cc1 [TDH-211, (R)-2-((4-fluorophenyl)amino)-2-oxo-1-phenylethyl 3-amino-6-(1-(1-((1-(2-(((S)-1-((2S,4R)-4-hydroxy-2-((4-(4-methylthiazol-5-yl)benzyl)carbamoyl)pyrrolidin-1-yl)-3,3-dimethyl-1-oxobutan-2-yl)amino)-2-oxoethyl)piperidin-4-yl)methyl)piperidin-4-yl)-1H-pyrazol-4-yl)pyrazine-2-carboxylate]",29.87,41.58,9.7,29.62,6.3,–,–
"Nc1ncc(-c2cnn(C3CCN(CCCC4CCN(C(=O)COc5ccc6c(c5)C(=O)N(C5CCC(=O)NC5=O)C6=O)CC4)CC3)c2)nc1C(=O)O[C@@H](C(=O)Nc1ccc(F)cc1)c1ccccc1 (stereo partly drawn) [TDH-482, (R)-2-((4-fluorophenyl)amino)-2-oxo-1-phenylethyl 3-amino-6-(1-(1-(3-(1-(2-((2-(2,6-dioxopiperidin-3-yl)-1,3-dioxoisoindolin-5-yl)oxy)acetyl)piperidin-4-yl)propyl)piperidin-4-yl)-1H-pyrazol-4-yl)pyrazine-2-carboxylate]",–,–,91.19,88.98,1.2,78.94,42.16
"Nc1ncc(-c2cnn(C3CCN(CCCN4CCN(C(=O)COc5cccc6c5C(=O)N(C5CCC(=O)NC5=O)C6=O)CC4)CC3)c2)nc1C(=O)OC(C(=O)Nc1ccc(F)cc1)c1ccccc1 (centres unmarked) [TDH-243, 2-((4-fluorophenyl)amino)-2-oxo-1-phenylethyl 3-amino-6-(1-(1-(3-(4-(2-((2-(2,6-dioxopiperidin-3-yl)-1,3-dioxoisoindolin-4-yl)oxy)acetyl)piperazin-1-yl)propyl)piperidin-4-yl)-1H-pyrazol-4-yl)pyrazine-2-carboxylate]",61.25,53.31,57.14,54.82,0.94,–,–
"Nc1ncc(-c2cnn(C3CCN(CCC4CCN(C(=O)C5CCN(c6cccc7c6C(=O)N(C6CCC(=O)NC6=O)C7=O)CC5)CC4)CC3)c2)nc1C(=O)O[C@@H](C(=O)Nc1ccc(F)cc1)c1ccccc1 (stereo partly drawn) [TDH-196, (R)-2-((4-fluorophenyl)amino)-2-oxo-1-phenylethyl 3-amino-6-(1-(1-(2-(1-(1-(2-(2,6-dioxopiperidin-3-yl)-1,3-dioxoisoindolin-4-yl)piperidine-4-carbonyl)piperidin-4-yl)ethyl)piperidin-4-yl)-1H-pyrazol-4-yl)pyrazine-2-carboxylate]",60.75,34,62.01,51.12,0.97,–,–
"Nc1ncc(-c2cnn(C3CCN(CCC4CCN(C(=O)C5CN(C6=CC(=O)N(C7CCC(=O)NC7=O)C6=O)C5)CC4)CC3)c2)nc1C(=O)O[C@@H](C(=O)Nc1ccc(F)cc1)c1ccccc1 (stereo partly drawn) [TDH-531, (R)-2-((4-fluorophenyl)amino)-2-oxo-1-phenylethyl 3-amino-6-(1-(1-(2-(1-(1-(1-(2,6-dioxopiperidin-3-yl)-2,5-dioxo-2,5-dihydro-1H-pyrrol-3-yl)azetidine-3-carbonyl)piperidin-4-yl)ethyl)piperidin-4-yl)-1H-pyrazol-4-yl)pyrazine-2-carboxylate]",–,–,67.64,53.49,0.28,16.12,15.34
"Cn1c(=O)n(C2CCC(=O)NC2=O)c2ccc(N3CCC(C(=O)N4CCN(CCCN5CCC(n6cc(-c7cnc(N)c(C(=O)O[C@@H](C(=O)Nc8ccc(F)cc8)c8ccccc8)n7)cn6)CC5)CC4)CC3)cc21 (stereo partly drawn) [TDH-540, (R)-2-((4-fluorophenyl)amino)-2-oxo-1-phenylethyl 3-amino-6-(1-(1-(3-(4-(1-(1-(2,6-dioxopiperidin-3-yl)-3-methyl-2-oxo-2,3-dihydro-1H-benzo[d]imidazol-5-yl)piperidine-4-carbonyl)piperazin-1-yl)propyl)piperidin-4-yl)-1H-pyrazol-4-yl)pyrazine-2-carboxylate]",–,–,81.44,56.99,0.37,20.79,17.37
"Nc1ncc(-c2cnn(C3CCN(CC4CCN(CC(=O)NCCNc5cccc6c5C(=O)N(C5CCC(=O)NC5=O)C6=O)CC4)CC3)c2)nc1C(=O)OC(C(=O)Nc1ccc(F)cc1)c1ccccc1 (centres unmarked) [TDH-234, 2-((4-fluorophenyl)amino)-2-oxo-1-phenylethyl 3-amino-6-(1-(1-((1-(2-((2-((2-(2,6-dioxopiperidin-3-yl)-1,3-dioxoisoindolin-4-yl)amino)ethyl)amino)-2-oxoethyl)piperidin-4-yl)methyl)piperidin-4-yl)-1H-pyrazol-4-yl)pyrazine-2-carboxylate]",35.55,26.56,64.08,54.89,1.6,–,–
